The assay has as its system TGFβ signal. Description: TGFβ signal inhibitory activity, (SBE)4-Luc reporter in A549 cells (Test Examples 1A and 1B). Type of assay: cell-based, human. The note with it: Homo sapiens, A549, read-out: TGFβ inhibition rate, %; for inhibition at 3 µM: test compound 3 µM; for inhibition at 10 µM: test compound 10 µM. Summed up: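 Compounds at 3 µM and 10 µM (some 1 µM) were added with 2 ng/ml TGFβ-1 to A549 cells stably expressing an SBE-driven luciferase, then cultured 4 hr. Chemiluminescent luciferase signal gave % inhibition versus TGFβ-alone and no-TGFβ controls.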

Read-outs that look alike come from different tables or passages of the source.

The inhibition is the percentage by which the read-out fell short of the control. As to `Cc1ccc(Oc2ccnc3ccc(OCC4CCC4)cc23)c(-c2ncccn2)n1` [Compound 213, 6-Cyclobutylmethoxy-4-(6-methyl-2-pyrimidin-2-yl-pyridin-3-yloxy)-quinoline], the inhibition at 3 µM (TGFβ-1 2 ng/ml, 4 hr, Table 1A) came out at 98%.

As to `Cc1ccc(Oc2ccnc3ccc(OCC(C)(C)C)cc23)c(-c2ncccn2)n1` [Compound 214, 6-(2,2-Dimethyl-propoxy)-4-(6-methyl-2-pyrimidin-2-yl-pyridin-3-yloxy)-quinoline], the inhibition at 3 µM (TGFβ-1 2 ng/ml, 4 hr, Table 1A) was found to be 90%.

`Cc1ccc(Oc2ccnc3ccc(OCC(C)(C)CO)cc23)c(-c2ncccn2)n1` [Compound 215, 2,2-Dimethyl-3-[4-(6-methyl-2-pyrimidin-2-yl-pyridin-3-yloxy)-quinolin-6-yloxy]-propan-1-ol]: under “TGFβ-1 2 ng/ml, 4 hr, Table 1A”, the inhibition at 3 µM was 79%.

For `Cc1ccc(Oc2ccnc3ccc(OCCC4CCCCC4)cc23)c(-c2ncccn2)n1` [Compound 216, 6-(2-Cyclohexylethoxy)-4-(6-methyl-2-pyrimidin-2-yl-pyridin-3-yloxy)-quinoline], the inhibition at 3 µM (TGFβ-1 2 ng/ml, 4 hr, Table 1A) was 84%.

As to `Cc1ccc(Oc2ccnc3ccc(OCCCN4CCN(c5ccccn5)CC4)cc23)c(-c2ncccn2)n1` [Compound 218, 4-(6-Methyl-2-pyrimidin-2-yl-pyridin-3-yloxy)-6-[3-(4-pyridin-2-yl-piperazin-1-yl)-propoxy]-quinoline], where the note is “TGFβ-1 2 ng/ml, 4 hr, Table 1A”, the inhibition at 3 µM was found to be 84% and the inhibition at 10 µM worked out at 100%.

As for `Cc1ccc(Oc2ccnc3ccc(OCCCN(CCO)c4ccccc4)cc23)c(-c2ncccn2)n1` [Compound 219, 2-({3-[4-(6-Methyl-2-pyrimidin-2-yl-pyridin-3-yloxy)-quinolin-6-yloxy]-propyl}-phenylamino)-ethanol], under “TGFβ-1 2 ng/ml, 4 hr, Table 1A”, the inhibition at 3 µM worked out at 96% and the inhibition at 10 µM worked out at 100%.

On to `Cc1ccc(Oc2ccnc3ccc(OCCCN4CCC(Cc5ccccc5)CC4)cc23)c(-c2ncccn2)n1` [Compound 220, 6-[3-(4-Benzyl-piperidin-1-yl)-propoxy]-4-(6-methyl-2-pyrimidin-2-yl-pyridin-3-yloxy)-quinoline], for which, where the note is “TGFβ-1 2 ng/ml, 4 hr, Table 1A”, the inhibition at 3 µM was 91% and the inhibition at 10 µM turned out to be 100%.

Regarding `Cc1ccc(Oc2ccnc3ccc(OCCCN4CCN(CCO)CC4)cc23)c(-c2ncccn2)n1` [Compound 221, 2-(4-{3-[4-(6-Methyl-2-pyrimidin-2-yl-pyridin-3-yloxy)-quinolin-6-yloxy]-propyl}-piperazin-1-yl)-ethano I], where the note is “TGFβ-1 2 ng/ml, 4 hr, Table 1A”, the inhibition at 3 µM worked out at 39% and the inhibition at 10 µM worked out at 79%.

As for `CCN(C)CCOc1ccc2nccc(Oc3ccc(C)nc3-c3ncccn3)c2c1` [Compound 223, ethyl-methyl-{2-[4-(6-methyl-2-pyrimidin-2-yl-pyridin-3-yloxy)-quinolin-6-yloxy]-ethyl}-amine], where the note is “TGFβ-1 2 ng/ml, 4 hr, Table 1A”, the inhibition at 3 µM was determined as 52% and the inhibition at 10 µM was determined as 90%.

On to `CCc1ccc(Oc2ccnc3ccc(OCCOC(=O)C(C)(C)CC)cc23)c(-c2ncccn2)n1` [Compound 224, 2-[4-(6-Ethyl-2-pyrimidin-2-yl-pyridin-3-yloxy)-quinolin-6-yloxy]-ethyl 2,2-dimethyl-butanoate], for which, under “TGFβ-1 2 ng/ml, 4 hr, Table 1A”, the inhibition at 3 µM worked out at 95% and the inhibition at 10 µM was 100%.

With `COc1cc2nccc(Oc3ccccc3Cc3ccccc3)c2cc1OC` [Compound r1, 4-(2-Benzylphenoxy)-6,7-dimethoxyquinoline], where the note is “Reference Examples, Table 1B”, the inhibition at 3 µM is 5% and the inhibition at 10 µM stood at 53%.

As to `CC=Cc1ccccc1Oc1ccnc2cc(OC)c(OC)cc12` [Compound r2], where the note is “Reference Examples, Table 1B”, the inhibition at 3 µM came to 13% and the inhibition at 10 µM came to 88%.

Take `COc1cc2nccc(Oc3ccc(C)cc3Cl)c2cc1OC` [Compound r3]: under “Reference Examples, Table 1B”, the inhibition at 3 µM amounted to 0% and the inhibition at 10 µM was 75%.

Consider `COc1cc2nccc(Oc3ccc(C)cc3Br)c2cc1OC` [Compound r4], for which, under “Reference Examples, Table 1B”, the inhibition at 3 µM came to 20% and the inhibition at 10 µM was 78%.

For `COc1cc2nccc(Oc3ccc(C)cc3CN3CCCCC3)c2cc1OC` [Compound r6, 6,7-Dimethoxy-4-[4-methyl-2-(piperidinomethyl)phenoxy]quinoline], under “Reference Examples, Table 1B”, the inhibition at 3 µM came out at 30% and the inhibition at 10 µM was found to be 72%.

`COc1ccc(Oc2ccnc3cc(OC)c(OC)cc23)c(/C=C/c2ccccc2)c1` [Compound r7, 6,7-Dimethoxy-4-{4-methoxy-2-[(E)-2-phenyl-1-ethenyl]phenoxy}quinoline]: under “Reference Examples, Table 1B”, the inhibition at 3 µM is 13% and the inhibition at 10 µM was determined as 54%.

Take `CCC(O)c1cc(C)ccc1Oc1ccnc2cc(OC)c(OC)cc12` (stereo not drawn) [Compound r9, 1-{2-[(6,7-Dimethoxy-4-quinolyl)oxy]-5-methylphenyl}-1-propanol]: under “Reference Examples, Table 1B”, the inhibition at 3 µM turned out to be 29% and the inhibition at 10 µM amounted to 77%.

With `CCC(O)c1cc(OC)ccc1Oc1ccnc2cc(OC)c(OC)cc12` (stereo not drawn) [Compound r11], for the setting “Reference Examples, Table 1B”, the inhibition at 3 µM was 28% and the inhibition at 10 µM came out at 66%.

`COc1cc2nccc(Oc3ccc(C)cc3Nc3ccccc3)c2cc1OC` [Compound r14, N-[2-[(6,7-Dimethoxy-4-quinolyl)oxy]-5-methylphenyl]-N-phenylamine]: under “Reference Examples, Table 1B”, the inhibition at 3 µM came out at 15% and the inhibition at 10 µM came to 64%.

With `COc1cc2nccc(Oc3cccc4ccccc34)c2cc1OC` [Compound r16], under “Reference Examples, Table 1B”, the inhibition at 3 µM came to 0% and the inhibition at 10 µM was 62%.

In the case of `COc1cc2nccc(Oc3ccc4ccccc4c3)c2cc1OC` [Compound r17], where the note is “Reference Examples, Table 1B”, the inhibition at 3 µM is 15% and the inhibition at 10 µM came to 80%.

As to `COc1cc2nccc(Oc3ccc4c(c3)C(=O)c3ccccc3-4)c2cc1OC` [Compound r19], under “Reference Examples, Table 1B”, the inhibition at 3 µM turned out to be 73% and the inhibition at 10 µM was 95%.

Take `COc1cc2nccc(Oc3ccc4c(ccn4C)c3)c2cc1OC` [Compound r20, 6,7-Dimethoxy-4-[(1-methyl-5-indolyl)oxy]quinoline]: for the setting “Reference Examples, Table 1B”, the inhibition at 3 µM is 19% and the inhibition at 10 µM was found to be 69%.

Take `COc1cc2nccc(Oc3ccc4c(ccn4C(C)=O)c3)c2cc1OC` [Compound r21]: under “Reference Examples, Table 1B”, the inhibition at 3 µM was 16% and the inhibition at 10 µM amounted to 71%.

Regarding `CCOC(=O)c1cc2cc(Oc3ccnc4cc(OC)c(OC)cc34)ccc2[nH]1` [Compound r22], under “Reference Examples, Table 1B”, the inhibition at 3 µM stood at 11% and the inhibition at 10 µM is 81%.

With `COc1cc2nccc(Oc3ccc4c(c3)COC(=O)N4)c2cc1OC` [Compound r23, 6-[(6,7-Dimethoxy-4-quinolyl)oxy]-1,4-dihydro-2H-3,1-benzoxazin-2-one], for the setting “Reference Examples, Table 1B”, the inhibition at 3 µM came out at 56% and the inhibition at 10 µM is 91%.

Regarding `COc1ccc(Oc2ccnc3cc(OC)c(OC)cc23)c(C=O)c1` [Compound r26], where the note is “Reference Examples, Table 1B”, the inhibition at 3 µM was found to be 20% and the inhibition at 10 µM worked out at 73%.

Regarding `COc1cc2nccc(Oc3ccc4ccccc4c3C=O)c2cc1OC` [Compound r27], for the setting “Reference Examples, Table 1B”, the inhibition at 3 µM turned out to be 0% and the inhibition at 10 µM was determined as 93%.

`COc1cc2nccc(Oc3cc4c5c(c3C=O)CCCN5CCC4)c2cc1OC` [Compound r28]: under “Reference Examples, Table 1B”, the inhibition at 3 µM was found to be 0% and the inhibition at 10 µM came to 53%.

For the molecule `COc1cc2nccc(Oc3ccccc3C(C)=O)c2cc1OC` [Compound r29], where the note is “Reference Examples, Table 1B”, the inhibition at 3 µM was 0% and the inhibition at 10 µM came to 67%.

Turning to `COc1cc2nccc(Oc3c(OC)cccc3C(C)=O)c2cc1OC` [Compound r30], under “Reference Examples, Table 1B”, the inhibition at 3 µM was 0% and the inhibition at 10 µM is 61%.

In the case of `COc1cc2nccc(Oc3cc(C)ccc3C(C)=O)c2cc1OC` [Compound r32], under “Reference Examples, Table 1B”, the inhibition at 3 µM came to 81% and the inhibition at 10 µM was 98%.

Consider `COc1cc2nccc(Oc3ccc(C)cc3C(C)=O)c2cc1OC` [Compound r35], for which, under “Reference Examples, Table 1B”, the inhibition at 3 µM was 49% and the inhibition at 10 µM stood at 89%.

As to `COc1cc2nccc(Oc3cc(C)c(Cl)cc3C(C)=O)c2cc1OC` [Compound r37], for the setting “Reference Examples, Table 1B”, the inhibition at 3 µM amounted to 94% and the inhibition at 10 µM stood at 100%.

Turning to `COc1cc2nccc(Oc3cc(C)c(C)cc3C(C)=O)c2cc1OC` [Compound r38], where the note is “Reference Examples, Table 1B”, the inhibition at 3 µM came to 98% and the inhibition at 10 µM stood at 100%.

On to `COc1cc(Oc2ccnc3cc(OC)c(OC)cc23)c(C(C)=O)cc1OC` [Compound r39], for which, where the note is “Reference Examples, Table 1B”, the inhibition at 3 µM was 0% and the inhibition at 10 µM came to 91%.

With `COc1cc2nccc(Oc3c(C(C)=O)ccc4ccccc34)c2cc1OC` [Compound r41], under “Reference Examples, Table 1B”, the inhibition at 3 µM turned out to be 57% and the inhibition at 10 µM is 97%.

Regarding `CCC(=O)c1ccc(OCc2ccccc2)cc1Oc1ccnc2cc(OC)c(OC)cc12` [Compound r45], where the note is “Reference Examples, Table 1B”, the inhibition at 3 µM amounted to 0% and the inhibition at 10 µM is 67%.

As to `CCC(=O)c1cc(I)ccc1Oc1ccnc2cc(OC)c(OC)cc12` [Compound r47], under “Reference Examples, Table 1B”, the inhibition at 3 µM turned out to be 45% and the inhibition at 10 µM came out at 98%.

Turning to `CCC(=O)c1cc(C)ccc1Oc1ccnc2cc(OC)c(OC)cc12` [Compound r48], where the note is “Reference Examples, Table 1B”, the inhibition at 3 µM is 98% and the inhibition at 10 µM worked out at 100%.

`CCC(=O)c1cc(C(C)(C)C)ccc1Oc1ccnc2cc(OC)c(OC)cc12` [Compound r49]: where the note is “Reference Examples, Table 1B”, the inhibition at 3 µM is 0% and the inhibition at 10 µM worked out at 62%.

Consider `CCC(=O)c1cc(OC)ccc1Oc1ccnc2cc(OC)c(OC)cc12` [Compound r50], for which, under “Reference Examples, Table 1B”, the inhibition at 3 µM was 100% and the inhibition at 10 µM was 100%.

As for `CCC(=O)c1cc(OC(F)(F)F)ccc1Oc1ccnc2cc(OC)c(OC)cc12` [Compound r51], where the note is “Reference Examples, Table 1B”, the inhibition at 3 µM worked out at 71% and the inhibition at 10 µM was 99%.

`CCCCC(=O)c1cc(C)ccc1Oc1ccnc2cc(OC)c(OC)cc12` [Compound r52]: under “Reference Examples, Table 1B”, the inhibition at 3 µM amounted to 97% and the inhibition at 10 µM was 100%.

(Values after patent publication EP1724268A1, “COMPOUND HAVING TGF-BETA INHIBITORY ACTIVITY AND PHARMACEUTICAL COMPOSITION CONTAINING SAME” (KIRIN BEER KABUSHIKI KAISHA, priority 2004, dated 2005).)
